# From patent US20050020658A1, “Selective cyclooxygenase-2 inhibitor patch” (priority 2002, published 2005)
# Tests used:
# [1] = Solubility of celecoxib and valdecoxib in various solvents at room temperature; format: physicochemical
# Method: In order to identify candidate solvent systems for patch formulations of selective COX-2 inhibitory drugs of low water solubility, various solvents were tested for solubility of celecoxib and valdecoxib at room temperature.
# [2] = Skin flux of 10 mM drug solutions in NMP, Franz diffusion cell; format: in vitro ADME, rat; conditions: 10 mM solution in NMP, 1 ml; receptor 10% NMP in phosphate buffer saline pH 7.4; 32° C.; 3 replicates
# Method: (§1) A 15 mm disk of the membrane was placed on a diffusion cell filled with the receptor fluid and the diffusion cell was maintained at 32° C. A 10 mM solution of each drug in NMP was placed in an amount of 1 ml on the membrane. […] The test was conducted in 3 replicates.
# [3] = In vitro skin permeation of 1% drug solutions, Franz diffusion cell; format: in vitro ADME, rat
# Method: A 15 mm disk of the membrane was placed on a diffusion cell filled with the receptor fluid and the diffusion cell was maintained at 32° C. A 10 mM solution of each drug in NMP was placed in an amount of 1 ml on the membrane. The amount of drug that had permeated through the membrane by various times in an 8-10 hour period was determined by HPLC analysis of the receptor fluid. The test was conducted in 3 replicates. […] The test solutions in this example comprised celecoxib or valdecoxib at a concentration of 1% weight/volume in various solvents. The test was conducted in 3 replicates. […] The test solutions in this example comprised celecoxib or valdecoxib at a concentration of 1% weight/volume in NMP, with or without oleic acid at 1% weight/volume. The test was conducted in 3 replicates.
# [4] = In vitro skin permeation of poultice, tape and gel formulations, Franz diffusion cell; format: in vitro ADME, rat
# Method: as §1, with “replicates. […] The test solutions in this example comprised celecoxib or valdecoxib at a concentration of 1% weight/volume in various solvents. The test was conducted in 3 replicates. A 25 mm disk was punched from each poultice and placed on a Franz diffusion cell. […]” for “replicates.”
# [5] = Solubility of valdecoxib in NMP/PEG 400 mixtures at room temperature; format: physicochemical
# Method: Solubility was determined by preparing a saturated solution of valdecoxib in the test solvent system at 80° C. and cooling this solution for 24 hours at room temperature.
# [6] = in 1,3-butylene glycol, room temperature
# [7] = in crotamiton, room temperature
# [8] = in diethyl sebacate, room temperature
# [9] = in dipropylene glycol, room temperature
# [10] = in propylene glycol, room temperature
# [11] = 0.5% poultice (crotamiton/PEG 400 solvents), 25 mm disk
Compound,"solubility [1, 6] [mg/g]","solubility ([1]; in DIA, room temperature) [mg/g]","solubility ([1]; in NMP, room temperature) [mg/g]","solubility ([1]; in PEG 400, room temperature) [mg/g]","solubility [1, 7] [mg/g]","solubility [1, 8] [mg/g]","solubility [1, 9] [mg/g]","solubility [1, 10] [mg/g]",skin flux [2] [nmol/cm^2 · h],skin flux ([3]; 1% weight/volume in NMP) [μg/cm^2 · h],skin flux ([3]; 1% weight/volume in PEG 400),skin flux ([3]; 1% weight/volume in crotamiton),"skin flux [4, 11] [μg/cm^2 · h]","skin flux ([4]; 1.0% gel (70% ethanol), 200 mg) [μg/cm^2 · h]",further results
"Cc1ccc(-c2cc(C(F)(F)F)nn2-c2ccc(S(N)(=O)=O)cc2)cc1 [celecoxib, 4-[5-(4-methylphenyl)-3-(trifluoromethyl)-1H-pyrazol-1-yl]benzenesulfonamide]",20,94,219,340,306,77,44,28,1.6,0.15,not detectable,not detectable,0.008,0.039,
CC(C(=O)O)c1cccc(C(=O)c2ccccc2)c1 (centres unmarked) [ketoprofen],,,,,,,,,33.4,,,,,,
"Cc1onc(-c2ccccc2)c1-c1ccc(S(N)(=O)=O)cc1 [valdecoxib, 4-[5-methyl-3-phenylisoxazol-4-yl]benzenesulfonamide]",19,20,190,198,165,10,67,30,3.3,0.51,not detectable,0.02 μg/cm^2 · h,0.009,0.115,"solubility ([1]; in glycerol, room temperature): 1 mg/g; time at which amount of drug permeated reached a plateau ([3]; 1% in NMP, FIG. 4): about 4 hours; solubility ([5]; NMP:PEG 400 ratio 0:5, saturated at 80° C., cooled 24 hours at room temperature): 169 mg/g; solubility ([5]; NMP:PEG 400 ratio 5:0): 190 mg/g; solubility ([5]; NMP:PEG 400 ratio 5:1): 149 mg/g; solubility ([5]; NMP:PEG 400 ratio 5:2): 126 mg/g; solubility ([5]; NMP:PEG 400 ratio 5:3): 100 mg/g; solubility ([5]; NMP:PEG 400 ratio 5:4): 73 mg/g; solubility ([5]; NMP:PEG 400 ratio 5:5): 71 mg/g"
